Publication PMC2682793, “Enhanced muscarinic M1 receptor gene expression in the corpus striatum of streptozotocin-induced diabetic rats” (Journal of Biomedical Science, 2009)

Biological target: T1, total muscarinic receptor
T1 construct: gene Chrm1
Type: biochemical, Rattus norvegicus
Conditions: control rats; striatal membranes; 1 nM [3H]QNB; Tris-HCl-EDTA pH 7.4; 22°C; one-site fit; unit not printed (concentrations in M); logarithmic value; EC50 stated to be same as IC50
Source text: [3H]QNB displacement, filtration on total muscarinic receptor

CN1[C@@H]2CC[C@H]1CC(OC(=O)C(CO)c1ccccc1)C2 (stereo partly shown) [atropine]
Log (EC50): -7.076
